{
  "source": "patent US20170119034A1",
  "about": "“COMPOSITIONS AND METHODS FOR MODIFYING PERCEPTION OF SWEET TASTE” (University of Florida Research Foundation, Inc., priority 2012, published 2017)",
  "key": {"[1]": {"test_system": "perceived sweetness of tomato fruit (consumer panel)", "experiment": "Tomato consumer taste panel: perceived sweetness (gLMS) regressed on fruit chemical content", "assay_type": "in vivo, human", "conditions": "for association with sweetness after accounting for fructose / correlation with sweetness / contribution to perceived sweetness / association with sweetness: tomato; for correlation with sweetness: direction of correlation; for contribution to perceived sweetness: multiple regression analysis using the volatiles; for association with sweetness: univariate models", "procedure": "(§1) Sensory analysis. Fully ripe fruit were harvested, and used for taste panels. A random subset of fruit was used for biochemical analysis. Three biological replicates, each consisting of 2-20 fruit (depending on fruit size), were assayed for each variety. […] Panelists were between the ages of 18 and 78 with a median age of 22. […] An average of 85 (range of 66-95) of these panelists evaluated between 4-6 varieties in a session. All panelists went through a training session to familiarize them with the scaling and procedures. Tomatoes were sliced into wedges (or in halves for grape/cherry types) and each panelist was given two pieces for evaluation. Panelists took a bite of each sample, chewed and swallowed it, and rated overall liking and liking for texture. They then rated the perceived intensities of sweetness, sourness, saltiness, umami sensation, bitterness and overall tomato flavor. They were free to take as many bites as necessary to complete the assessments. They were instructed to take a bite of an unsalted cracker and a sip of water between samples. Samples were presented to the panelists in a randomized order. Hedonic ratings used the hedonic gLMS. This scale assesses the liking for tomatoes in the context of all pleasure/displeasure experiences: 0=neutral, −100=strongest disliking of any kind experienced, and +100=strongest liking of any kind experienced. Sensory intensity ratings used the gLMS (7, 8, 19).This scale assesses taste and flavor sensations in the context of all sensory experience (7): 0=no sensation, 100=strongest sensation of any kind experienced. Both scales were devised to provide valid comparisons across subjects.\n(§2) Statistical analysis. The 68 chemical compounds measured in this experiment were divided into six groups based upon biochemical properties: sugars, branched chain amino acids, lipids, carotenoids, phenolics, and acids. A small number of compounds for which biosynthetic pathways are not established were assigned to one of the six classes based upon their correlations with other classified compounds. All pairwise correlations among the set of 68 compounds were calculated. Correlation coefficients were sorted using Modulated Modularity Clustering (MMC) (9) as a visual aid for identifying compounds that are closely related in this sample (FIG. 1; Table 4). Biochemical groups were examined for compounds within the group that were highly correlated and compounds that were upstream in the relevant metabolic pathways were preferentially selected.\n(§3) All analyses were performed in SAS v 9.2.\nIn conducting the multiple regression analysis on the tomato data set, the independent variables were the sugar content (glucose+fructose), and the flavor (indicated by the retronasal perception of volatiles), while the dependent variable was the perceived sweetness."}, "[2]": {"test_system": "tomato flavor intensity (consumer panel)", "experiment": "Tomato consumer taste panel: overall tomato flavor intensity (gLMS) versus fruit chemical content", "assay_type": "in vivo, human", "conditions": "for association with flavor intensity: univariate models", "procedure": "as §1, §2, §3"}, "[3]": {"test_system": "perceived sweetness of tomato fruit (consumer panel)", "conditions": "analysis of a volatile subset (Tieman 2012); cited from earlier work"}, "[4]": {"test_system": "perceived sourness of tomato fruit (consumer panel)", "experiment": "Tomato consumer taste panel: sourness intensity versus fruit chemical content", "assay_type": "in vivo, human", "conditions": "volatile-induced sourness independent of citric acid", "procedure": "Sensory analysis. Fully ripe fruit were harvested, and used for taste panels. A random subset of fruit was used for biochemical analysis. Three biological replicates, each consisting of 2-20 fruit (depending on fruit size), were assayed for each variety. A group of 170 tomato consumers (64 male, 106 female) were recruited to evaluate all the varieties. Panelists were between the ages of 18 and 78 with a median age of 22. Panelists self-classified themselves as 101 White/Caucasian, 14 Black/African-American, 32 Asian/Pacific and […]. An average of 85 (range of 66-95) of these panelists evaluated between 4-6 varieties in a session. All panelists went through a training session to familiarize them with the scaling and procedures. Tomatoes were sliced into wedges (or in halves for grape/cherry types) and each panelist was given two pieces for evaluation. Panelists took a bite of each sample, chewed and swallowed it, and rated overall liking and liking for texture. They then rated the perceived intensities of sweetness, sourness, saltiness, umami sensation, bitterness and overall tomato flavor. They were free to take as many bites as necessary to complete the assessments. They were instructed to take a bite of an unsalted cracker and a sip of water between samples. Samples were presented to the panelists in a randomized order. Hedonic ratings used the hedonic gLMS. […]"}, "[5]": {"test_system": "strawberry flavor intensity (consumer panel)", "experiment": "Strawberry consumer panel: bivariate fit to strawberry flavor intensity", "assay_type": "in vivo, human", "conditions": "bivariate linear fit; X = content of the substance in strawberry fruit, Y = Flavor Intensity (FI)", "procedure": "(§4) All consumer panels were approved by the University of Florida Institutional Review Board. […] Ages of panelist ranged from 18 to 71, with a median age of 24. Panelists self-classified themselves as 98 White or Caucasian, 11 Black or African-American, 1 Native American, Alaska Native or Aleutian, 41 Asian/Pacific Islander, and 15 Other. […] Fresh, fully-ripe strawberry fruit was removed from overnight 4° C. dark storage and allowed to warm to room temperature prior to sensory analysis. Each panelist was given one to two whole strawberries for evaluation, depending on cultivar availability. Panelist took a bite of each sample, chewed, and swallowed it. Ratings for overall liking and liking for texture were scaled on hedonic general labeled magnitude scale (gLMS) in the context of all pleasure/displeasure experiences. […] Scales were employed to mediate valid comparisons across subjects and sessions.\n(§5) Bivariate analysis among individual measurements of samples allowed for linear fit, which includes summary of fit, analysis of variance, t-test, and correlation analysis for density ellipse. Two-way Ward hierarchical cluster analysis of all metabolite concentrations and strawberry samples accomplished in JMP."}, "[6]": {"test_system": "perceived sweetness intensity of strawberry fruit (consumer panel)", "experiment": "Strawberry consumer panel: multiple regression of volatile concentration against perceived sweetness intensity independent of glucose, fructose or sucrose", "assay_type": "in vivo, human", "procedure": "Step-wise multiple regressions of all volatile compounds against perceived intensity of sweetness is performed independent of either glucose, fructose, or sucrose concentration, separately (Table 6).\nas §4\nMultiple regressions were performed with the “enter” method in SPSS for identification of sweetness enhancing volatiles. Individual volatile compound concentrations were regressed using the “enter” method in SPSS Statistics (IBM Corp, Armonk, N.Y., USA)."}, "[7]": {"test_system": "texture liking of strawberry fruit (consumer panel)", "experiment": "Strawberry consumer panel: bivariate fit to texture liking", "assay_type": "in vivo, human", "conditions": "bivariate linear fit; X = content of the substance in strawberry fruit, Y = Texture liking", "procedure": "as §4, §5"}},
  "data": [
    {"smiles": "CCC(C)C=O", "note": "(stereo not shown) [2-methylbutanal]", "values": [
      {"measurement": "association with sweetness after accounting for fructose", "setting": "[1]", "value": "independent predictors of sweetness after accounting for fructose"},
      {"measurement": "correlation with sweetness", "setting": "[1]", "value": "negatively correlated with sweetness"},
      {"measurement": "contribution to perceived sweetness", "setting": "[1]", "value": "inhibitory effect"},
      {"measurement": "association with sweetness", "setting": "[1]", "value": "showed evidence for association with sweetness in univariate models"},
      {"measurement": "association with flavor intensity after accounting for fructose", "setting": "[2]", "value": "independently significant after accounting for fructose"},
      {"measurement": "association with flavor intensity", "setting": "[2]", "value": "associated with flavor intensity in univariate models"},
      {"measurement": "enhancing sweetness intensity independent of fructose", "setting": "[3]", "value": "enhancing sweetness intensity independent of fructose"},
      {"measurement": "contribution to sourness", "setting": "[4]", "value": "contributed to this sourness"}
    ]},
    {"smiles": "CC(C)CCO", "note": "[3-methyl-1-butanol]", "values": [
      {"measurement": "association with sweetness after accounting for fructose", "setting": "[1]", "value": "independent predictors of sweetness after accounting for fructose"},
      {"measurement": "association with sweetness", "setting": "[1]", "value": "showed evidence for association with sweetness in univariate models"},
      {"measurement": "association with flavor intensity after accounting for fructose", "setting": "[2]; listed as 3-methyl-1-butenol", "value": "independently significant after accounting for fructose"},
      {"measurement": "association with flavor intensity", "setting": "[2]", "value": "associated with flavor intensity in univariate models"},
      {"measurement": "enhancing sweetness intensity independent of fructose", "setting": "[3]", "value": "enhancing sweetness intensity independent of fructose"}
    ]},
    {"smiles": "CCCCOC(C)=O", "note": "[123-86-4, butyl acetate]", "values": [
      {"measurement": "association with sweetness", "setting": "[1]", "value": "showed evidence for association with sweetness in univariate models"},
      {"measurement": "association with flavor intensity", "setting": "[2]", "value": "associated with flavor intensity in univariate models"}
    ]},
    {"smiles": "CCC/C=C/C=O", "note": "[6728-26-3, (2E)-2-hexenal or trans-2-hexenal]", "values": [
      {"measurement": "Parameter Estimates: Estimate", "setting": "[5]", "value": 0.0003625},
      {"measurement": "t", "setting": "[1]; multiple regression of volatile against perceived sweetness of tomato, independent of the measures of sugar", "value": 0.051},
      {"measurement": "FRUCTOSE t RATIO", "setting": "[6]; volatile concentration regressed against perceived sweetness intensity independent of fructose", "value": 3.349},
      {"measurement": "GLUCOSE t RATIO", "setting": "[6]; volatile concentration regressed against perceived sweetness intensity independent of glucose", "value": 3.314},
      {"measurement": "SUCROSE t RATIO", "setting": "[6]; volatile concentration regressed against perceived sweetness intensity independent of sucrose", "value": "−0.816"},
      {"measurement": "Parameter Estimates-fit to Texture Liking: Estimate", "setting": "[7]", "value": 0.000185}
    ]},
    {"smiles": "CC/C=C\\CCO", "note": "[cis-3-hexen-1-ol]", "values": [
      {"measurement": "association with sweetness", "setting": "[1]", "value": "showed evidence for association with sweetness in univariate models"},
      {"measurement": "association with flavor intensity after accounting for fructose", "setting": "[2]", "value": "independently significant after accounting for fructose"},
      {"measurement": "association with flavor intensity", "setting": "[2]", "value": "associated with flavor intensity in univariate models"}
    ]},
    {"smiles": "O=C(CO)[C@@H](O)[C@H](O)[C@H](O)CO", "note": "[fructose]", "values": [
      {"measurement": "association with sweetness", "setting": "[1]", "value": "showed evidence for association with sweetness in univariate models"},
      {"measurement": "association with flavor intensity", "setting": "[2]", "value": "associated with flavor intensity in univariate models"}
    ]},
    {"smiles": "CC(C)=CCC/C(C)=C/C=O", "note": "[geranial]", "values": [
      {"measurement": "association with sweetness after accounting for fructose", "setting": "[1]", "value": "independent predictors of sweetness after accounting for fructose"},
      {"measurement": "correlation with sweetness", "setting": "[1]", "value": "positively correlated with sweetness"},
      {"measurement": "contribution to perceived sweetness", "setting": "[1]", "value": "positive contributor to perceived sweetness"},
      {"measurement": "association with sweetness", "setting": "[1]", "value": "showed evidence for association with sweetness in univariate models"},
      {"measurement": "association with flavor intensity", "setting": "[2]", "value": "associated with flavor intensity in univariate models"},
      {"measurement": "enhancing sweetness intensity independent of fructose", "setting": "[3]", "value": "enhancing sweetness intensity independent of fructose"}
    ]},
    {"smiles": "CSCCC=O", "note": "[methional]", "values": [
      {"measurement": "association with sweetness", "setting": "[1]", "value": "showed evidence for association with sweetness in univariate models"},
      {"measurement": "association with flavor intensity", "setting": "[2]", "value": "associated with flavor intensity in univariate models"}
    ]},
    {"smiles": "O=CCc1ccccc1", "note": "[phenylacetaldehyde]", "values": [
      {"measurement": "association with sweetness", "setting": "[1]", "value": "showed evidence for association with sweetness in univariate models"},
      {"measurement": "association with flavor intensity", "setting": "[2]", "value": "associated with flavor intensity in univariate models"},
      {"measurement": "association with tomato flavor intensity", "setting": "[2]; volatiles with high odor unit values", "value": "not associated with tomato flavor intensity"}
    ]}
  ]
}
